# Test results: patent US20250333377A1, “SOLID FORM OF NAPHTHYLAMINE MITOPHAGY INDUCER, AND PREPARATION METHOD THEREFOR, PHARMACEUTICAL COMPOSITION THEREOF AND USE THEREOF” (HANGZHOU PHECDAMED CO., LTD., priority 2023, published 2025)
# Where two headings read alike, the source gives them in different places.
# Columns and labels:
# Rat pharmacokinetic test = type: in vivo, SD rats; settings: for AUC(0-t): read-out: AUC0-24 h; for MRT inf: read-out: MRT0-∞; for MRT last: read-out: MRT0-24 h
# Description: The plasma kinetic characteristics of the prototype drugs in healthy SD rats are analyzed after three doses of single gavage administration, a single dose of consecutive multiple gavage administration, and a single dose of intravenous injection administration of the sodium salt D crystal form of TJ01-013. These include the rate of absorption and degree of exposure, individual differences, dose relationship, rate of elimination, attainment of steady state, and possible accumulation of D crystal form of TJ01-013. After SD rats are administrated 10, 30, and 90 mg/kg of D crystal form of TJ01-013 by gavage in a single dose, 30 mg/kg of D crystal form of TJ01-013 by gavage in a single dose once per day for 7 consecutive days, and 10 mg/kg of D crystal form of TJ01-013 by intravenous injection in a single dose, the data of the concentrations of the prototype drugs in plasma at different time points in each animal are calculated by applying WinNonlin software fitting, and the mean pharmacokinetic parameters of each group of 6 animals (half of males and half of females) are summarized as shown in Table 12 below.
# [1] = test system: SD rat puromycin aminonucleoside (PAN) model; assay: PAN-induced renal injury model in rats; type: in vivo, SD rats
# Description: The effect of D crystal form of TJ01-013 on renal function is studied in the SD rat puromycin aminonucleoside (PAN) model. Each group has twelve male rats of 160-180 g. On the first day of the experiment, except for the normal control group, rats in the other groups are given a single intraperitoneal injection of 100 mg/kg PAN (aminonucleoside puromycin) to induce the production of proteinuria. After modeling, the rats are randomly divided into the model control group, the three dose groups of 3 mg/kg, 10 mg/kg, and 30 mg/kg of the D crystal form of TJ01-013, and the normal control group. At the same time as intraperitoneal injection of PAN for modeling, the drug is administered by gavage once a day, with a volume of 10 mL/kg, for four consecutive weeks.
# [2] = both sexes, SD, rat, plasma, po, 10 mg/kg, SD rats, single gavage, 10 mg/kg
# [3] = both sexes, SD, rat, plasma, po, 30 mg/kg, SD rats, multiple gavage, 30 mg/kg once per day for 7 days
# [4] = both sexes, SD, rat, plasma, po, 30 mg/kg, SD rats, single gavage, 30 mg/kg
# [5] = both sexes, SD, rat, plasma, po, 90 mg/kg, SD rats, single gavage, 90 mg/kg
# [6] = both sexes, Sprague-Dawley (SD), rat, plasma, SD rats, single intravenous injection, 10 mg/kg
# [7] = both sexes, rat, plasma, po, SD rats, single gavage, 10 mg/kg
# [8] = both sexes, rat, plasma, po, SD rats, single gavage, 30 mg/kg
# [9] = both sexes, rat, plasma, po, SD rats, single gavage, 90 mg/kg
# [10] = 3, 10, and 30 mg/kg gavage, 7 and 12 d after administration, versus model control
compound,measurement,setting,value
O=C(O)C[S+]([O-])c1cc(NS(=O)(=O)c2ccc(Br)cc2)c2ccccc2c1O (centres unmarked) [Embodiment 4],"Dose relationship of exposure (Cmax, AUC0-24 h)","Rat pharmacokinetic test; SD rats, single gavage 10, 30, 90 mg/kg",the increase ratio is smaller than that of the dose
same,Pharmacokinetic characteristics (in words),"Rat pharmacokinetic test; SD rats, single gavage and intravenous administration","rapid absorption, low apparent volume of distribution and moderate elimination rate"
same,Tissue distribution (in words),"Rat pharmacokinetic test; SD rats, single intravenous administration",low degree tissue distribution
same,Difference of plasma pharmacokinetic parameters between male and female,"Rat pharmacokinetic test; SD rats, single intravenous, single and multiple gavage",no significant difference between male and female
same,AUC(0-t),"Rat pharmacokinetic test; both sexes, SD, rat, plasma, iv, 10 mg/kg, SD rats, single intravenous injection, 10 mg/kg",112000 ± 11000 ng·h/mL
same,AUC(0-inf),"Rat pharmacokinetic test; both sexes, SD, rat, plasma, po, 10 mg/kg, SD rats, single gavage",11100 ± 4320 ng·h/mL
same,AUC(0-t),Rat pharmacokinetic test; [2],10700 ± 4440 ng·h/mL
same,MRT inf,Rat pharmacokinetic test; [2],4.82 ± 1.4 h
same,AUC(0-inf),Rat pharmacokinetic test; [3],26600 ± 14200 ng·h/mL
same,AUC(0-t),Rat pharmacokinetic test; [3],26200 ± 13700 ng·h/mL
same,MRT inf,Rat pharmacokinetic test; [3],3.86 ± 0.947 h
same,AUC(0-inf),"Rat pharmacokinetic test; both sexes, SD, rat, plasma, po, 30 mg/kg, SD rats, single gavage",22800 ± 6860 ng·h/mL
same,AUC(0-t),Rat pharmacokinetic test; [4],22100 ± 6660 ng·h/mL
same,MRT inf,Rat pharmacokinetic test; [4],5.11 ± 1.84 h
same,AUC(0-inf),"Rat pharmacokinetic test; both sexes, SD, rat, plasma, po, 90 mg/kg, SD rats, single gavage",50100 ± 12200 ng·h/mL
same,AUC(0-t),Rat pharmacokinetic test; [5],49900 ± 12200 ng·h/mL
same,MRT inf,Rat pharmacokinetic test; [5],3.94 ± 0.754 h
same,AUC(0-inf),"Rat pharmacokinetic test; both sexes, Sprague-Dawley (SD), rat, plasma, iv, 10 mg/kg, SD rats, single intravenous injection",113000 ± 11000 ng·h/mL
same,MRT inf,"Rat pharmacokinetic test; both sexes, Sprague-Dawley (SD), rat, plasma, iv, 10 mg/kg, SD rats, single intravenous injection, 10 mg/kg",2.06 ± 0.192 h
same,Cmax at 7 days,"Rat pharmacokinetic test; both sexes, Sprague-Dawley (SD), rat, plasma, po, SD rats, multiple gavage, 30 mg/kg once per day for 7 days",5900 ± 3210 ng/mL
same,Tmax at 7 days,"Rat pharmacokinetic test; both sexes, Sprague-Dawley (SD), rat, plasma, po, SD rats, multiple gavage, 30 mg/kg once per day for 7 days, median (min, max)",1 h
same,Tmax,"Rat pharmacokinetic test; both sexes, Sprague-Dawley (SD), rat, plasma, po, SD rats, single gavage, 10 mg/kg, median (min, max)",0.5 h
same,Tmax,"Rat pharmacokinetic test; both sexes, Sprague-Dawley (SD), rat, plasma, po, SD rats, single gavage, 30 mg/kg, median (min, max)",0.5 h
same,Tmax,"Rat pharmacokinetic test; both sexes, Sprague-Dawley (SD), rat, plasma, po, SD rats, single gavage, 90 mg/kg, median (min, max)",1 h
same,clearance,Rat pharmacokinetic test; [6],1.49 mL/min/kg
same,half-life,Rat pharmacokinetic test; [6],2.26 ± 0.222 h
same,MRT last,Rat pharmacokinetic test; [6],2 ± 0.168 h
same,bioavailability,"Rat pharmacokinetic test; both sexes, rat, plasma, oral, SD rats, single gavage 10 mg/kg versus intravenous 10 mg/kg, read-out: F (absolute bioavailability)",9.55%
same,half-life at 7 days,"Rat pharmacokinetic test; both sexes, rat, plasma, po, SD rats, multiple gavage, 30 mg/kg once per day for 7 days",1.94 ± 0.898 h
same,Cmax,Rat pharmacokinetic test; [7],3130 ± 1660 ng/mL
same,half-life,Rat pharmacokinetic test; [7],3.86 ± 1.47 h
same,MRT last,Rat pharmacokinetic test; [7],3.84 ± 0.708 h
same,Cmax,Rat pharmacokinetic test; [8],4730 ± 1200 ng/mL
same,half-life,Rat pharmacokinetic test; [8],3.54 ± 2.55 h
same,MRT last,Rat pharmacokinetic test; [8],4.42 ± 0.923 h
same,Cmax,Rat pharmacokinetic test; [9],9980 ± 1850 ng/mL
same,half-life,Rat pharmacokinetic test; [9],2.08 ± 0.754 h
same,MRT last,Rat pharmacokinetic test; [9],3.89 ± 0.756 h
same,concentration at 5 min,"Rat pharmacokinetic test; both sexes, rat, plasma, SD rats, single intravenous injection, 10 mg/kg, read-out: C5 min",79900 ± 11600 ng/mL
same,Vd,"Rat pharmacokinetic test; both sexes, rat, plasma, SD rats, single intravenous injection, 10 mg/kg, read-out: Vss",0.184 L/kg
same,Accumulation,"Rat pharmacokinetic test; rats, 30 mg/kg gavage once a day for 7 consecutive days",no obvious accumulation
same,Amount of the 24 h urine protein,[1]; [10],different degrees of reduction
same,Urine protein concentration,[1]; [10],different degrees of reduction
same,Amount of the 24 h urine protein,"[1]; 3, 10, and 30 mg/kg, 12 d after administration",certain trend of reduction
same,Blood albumin,"[1]; 3, 10 and 30 mg/kg, 7 d and 12 d after administration, versus model control",different degrees of increase
same,Therapeutic effect on PAN-induced renal injury,"[1]; gavage 3, 10, 30 mg/kg",significant therapeutic effect
same,"Degree of renal lesions, pathologic microscopy","[1]; low, medium and high dose groups",reduce the degree of lesions
